For this assay, the system named is Receptor-type tyrosine-protein kinase FLT3 (Homo sapiens), P36888 [UNDEFINED MUTATION]. Briefly: Inhibition of FLT3-ITD mutant (unknown origin) expressed in mouse BaF3 cells assessed as inhibition of FLT3 autophosphorylation at Tyr589/591 residues at 16 to 2000 nM incubated for 2 hrs by immunoblot analysis. The assay is classed as cell-based. The settings on record: dose lower […], dose upper 2000.0 nM. For orientation: A western blot detects proteins with antibodies after separation by electrophoresis.

Structures are written as SMILES. Active and inactive are the calls of the source. No cut-off for these calls is given here.

Chain of Receptor-type tyrosine-protein kinase FLT3 (Homo sapiens), P36888 [UNDEFINED MUTATION] (P36888 whole entry, looked up, stated change not applied): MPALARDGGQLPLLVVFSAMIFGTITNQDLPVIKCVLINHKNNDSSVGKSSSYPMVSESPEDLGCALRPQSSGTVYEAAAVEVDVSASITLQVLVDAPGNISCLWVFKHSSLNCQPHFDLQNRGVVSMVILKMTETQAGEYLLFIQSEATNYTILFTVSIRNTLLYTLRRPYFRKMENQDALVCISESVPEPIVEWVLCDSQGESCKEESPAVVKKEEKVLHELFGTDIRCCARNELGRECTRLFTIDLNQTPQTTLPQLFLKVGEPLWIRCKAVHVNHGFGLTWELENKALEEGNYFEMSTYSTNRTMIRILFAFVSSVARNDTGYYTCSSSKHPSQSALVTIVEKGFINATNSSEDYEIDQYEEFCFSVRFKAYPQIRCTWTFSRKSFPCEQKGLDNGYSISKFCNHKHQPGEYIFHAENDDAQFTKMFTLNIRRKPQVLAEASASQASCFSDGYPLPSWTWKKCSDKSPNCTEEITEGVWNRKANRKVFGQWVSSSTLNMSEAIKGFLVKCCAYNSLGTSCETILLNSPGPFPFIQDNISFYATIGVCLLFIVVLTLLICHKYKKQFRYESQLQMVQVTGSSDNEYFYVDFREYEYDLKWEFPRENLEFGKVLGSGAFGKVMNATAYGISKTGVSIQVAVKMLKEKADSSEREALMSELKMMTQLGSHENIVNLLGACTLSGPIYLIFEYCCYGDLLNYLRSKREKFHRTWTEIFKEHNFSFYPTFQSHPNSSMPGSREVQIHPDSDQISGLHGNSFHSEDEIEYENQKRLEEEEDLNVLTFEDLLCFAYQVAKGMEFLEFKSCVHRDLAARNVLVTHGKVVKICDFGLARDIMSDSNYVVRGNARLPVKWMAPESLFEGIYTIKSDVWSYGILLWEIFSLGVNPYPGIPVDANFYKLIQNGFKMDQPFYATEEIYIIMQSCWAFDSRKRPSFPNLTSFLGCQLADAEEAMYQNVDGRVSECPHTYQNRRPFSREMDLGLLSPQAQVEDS

As to `COc1ccc(NC(=O)Nc2nnc(Sc3ncnc4oc(-c5ccccc5)cc34)s2)cc1`, the inhibition result was “Active”.
